{"source": "paper PMC5762315", "about": "“Inhibition of polo-like kinase 4 (PLK4): a new therapeutic option for rhabdoid tumors and pediatric medulloblastoma” (Oncotarget, 2017)", "test_in_all_cases": "LanthaScreen Eu Kinase Binding Assay, panel of 486 biochemical kinase assays", "key": {"various kinases [1]": {"molecular_target": "various kinases (Homo sapiens, UniProt P06241)", "details": "FYN A"}, "various kinases [2]": {"molecular_target": "various kinases (Homo sapiens, UniProt Q8TD08)", "details": "MAPK15 (ERK7)"}, "various kinases [3]": {"molecular_target": "various kinases (Homo sapiens, UniProt Q9UM73, R1275Q)", "details": "ALK R1275Q"}, "various kinases [4]": {"molecular_target": "various kinases (Homo sapiens, UniProt Q9UM73, F1174L)", "details": "ALK F1174L"}, "various kinases [5]": {"molecular_target": "various kinases (Homo sapiens, UniProt P24941)"}, "various kinases [6]": {"molecular_target": "various kinases (Homo sapiens, UniProt P19525)", "details": "EIF2AK2 (PKR)"}, "various kinases [7]": {"molecular_target": "various kinases (Homo sapiens, UniProt Q9Y2K2)", "details": "kinase SIK3; LanthaScreen Binding"}, "various kinases [8]": {"molecular_target": "T1, various kinases (Homo sapiens, UniProt P36897)", "T1 sequence (P36897 34-503)": "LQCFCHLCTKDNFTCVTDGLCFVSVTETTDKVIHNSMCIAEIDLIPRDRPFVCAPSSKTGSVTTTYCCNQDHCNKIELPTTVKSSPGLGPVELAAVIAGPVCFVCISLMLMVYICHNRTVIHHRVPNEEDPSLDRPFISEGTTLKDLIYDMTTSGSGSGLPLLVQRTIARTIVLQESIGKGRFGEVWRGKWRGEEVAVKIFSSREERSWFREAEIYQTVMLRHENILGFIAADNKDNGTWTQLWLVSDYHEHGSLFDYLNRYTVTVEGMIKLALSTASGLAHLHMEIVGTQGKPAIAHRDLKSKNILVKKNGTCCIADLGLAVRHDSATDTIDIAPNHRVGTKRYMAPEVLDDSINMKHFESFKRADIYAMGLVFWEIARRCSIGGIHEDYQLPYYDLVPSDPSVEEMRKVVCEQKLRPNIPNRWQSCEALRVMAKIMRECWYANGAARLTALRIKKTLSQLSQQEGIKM", "details": "kinase TGFBR1 (ALK5); LanthaScreen Binding"}, "various kinases [9]": {"molecular_target": "various kinases (Homo sapiens, UniProt Q5TCX8)", "details": "MLK4"}, "various kinases [10]": {"molecular_target": "various kinases (Homo sapiens, UniProt Q9UPZ9)", "details": "ICK"}, "various kinases [11]": {"molecular_target": "various kinases (Homo sapiens, UniProt P22607, G697C)", "sequence (P22607 23-806 G697C)": "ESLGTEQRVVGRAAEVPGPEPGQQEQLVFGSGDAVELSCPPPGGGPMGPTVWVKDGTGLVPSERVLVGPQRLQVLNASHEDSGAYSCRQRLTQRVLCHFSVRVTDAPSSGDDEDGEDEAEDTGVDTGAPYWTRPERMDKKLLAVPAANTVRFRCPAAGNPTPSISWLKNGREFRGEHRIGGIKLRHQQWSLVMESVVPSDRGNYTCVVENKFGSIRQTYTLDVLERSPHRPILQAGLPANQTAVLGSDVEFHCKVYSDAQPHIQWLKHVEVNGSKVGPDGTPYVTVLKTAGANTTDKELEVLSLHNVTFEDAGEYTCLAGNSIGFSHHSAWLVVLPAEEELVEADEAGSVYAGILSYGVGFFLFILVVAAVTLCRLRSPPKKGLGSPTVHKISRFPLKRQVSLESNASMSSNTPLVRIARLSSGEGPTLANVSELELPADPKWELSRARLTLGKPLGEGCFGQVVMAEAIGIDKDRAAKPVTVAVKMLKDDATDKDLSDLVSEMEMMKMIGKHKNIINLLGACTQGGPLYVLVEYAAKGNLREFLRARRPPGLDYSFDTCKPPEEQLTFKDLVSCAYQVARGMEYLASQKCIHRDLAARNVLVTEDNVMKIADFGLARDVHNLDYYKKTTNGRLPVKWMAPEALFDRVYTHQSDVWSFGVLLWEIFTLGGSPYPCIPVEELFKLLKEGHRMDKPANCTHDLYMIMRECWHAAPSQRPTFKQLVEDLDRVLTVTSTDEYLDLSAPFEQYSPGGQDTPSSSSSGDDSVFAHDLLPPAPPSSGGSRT", "details": "FGFR3 G697C"}, "various kinases [12]": {"molecular_target": "various kinases (Homo sapiens, UniProt P52564, S207E/T211E)", "details": "MAP2K6 (MKK6) S207E T211E"}, "various kinases [13]": {"molecular_target": "various kinases (Homo sapiens, UniProt O94921)", "details": "CDK14 (PFTK1)/cyclin Y"}, "various kinases [14]": {"molecular_target": "various kinases (Homo sapiens, UniProt P10721, N822K)", "details": "KIT N822K"}, "various kinases [15]": {"molecular_target": "various kinases (Homo sapiens, UniProt Q99558)", "details": "MAP3K14 (NIK)"}, "various kinases [16]": {"molecular_target": "T2, various kinases (Homo sapiens, UniProt P42680)", "T2 sequence (P42680 1-631)": "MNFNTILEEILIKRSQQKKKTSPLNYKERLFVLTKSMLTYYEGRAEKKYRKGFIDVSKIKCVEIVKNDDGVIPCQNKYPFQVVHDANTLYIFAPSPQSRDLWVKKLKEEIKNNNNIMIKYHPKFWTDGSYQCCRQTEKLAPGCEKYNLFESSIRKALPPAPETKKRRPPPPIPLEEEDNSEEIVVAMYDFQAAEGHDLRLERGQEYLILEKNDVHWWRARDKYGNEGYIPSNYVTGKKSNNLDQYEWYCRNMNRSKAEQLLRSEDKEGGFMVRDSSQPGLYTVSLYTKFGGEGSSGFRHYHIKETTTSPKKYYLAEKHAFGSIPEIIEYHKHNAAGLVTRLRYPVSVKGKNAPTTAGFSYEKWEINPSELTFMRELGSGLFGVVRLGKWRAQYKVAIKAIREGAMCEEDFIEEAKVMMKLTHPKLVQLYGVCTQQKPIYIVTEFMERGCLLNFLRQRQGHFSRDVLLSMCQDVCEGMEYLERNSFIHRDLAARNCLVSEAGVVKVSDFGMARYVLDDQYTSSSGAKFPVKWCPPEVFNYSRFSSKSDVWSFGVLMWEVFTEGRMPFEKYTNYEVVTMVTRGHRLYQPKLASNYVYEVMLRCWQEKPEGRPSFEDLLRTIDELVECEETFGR", "details": "kinase TEC; LanthaScreen Binding"}, "various kinases [17]": {"molecular_target": "various kinases (Homo sapiens, UniProt P54646)", "sequence (P54646 whole entry)": "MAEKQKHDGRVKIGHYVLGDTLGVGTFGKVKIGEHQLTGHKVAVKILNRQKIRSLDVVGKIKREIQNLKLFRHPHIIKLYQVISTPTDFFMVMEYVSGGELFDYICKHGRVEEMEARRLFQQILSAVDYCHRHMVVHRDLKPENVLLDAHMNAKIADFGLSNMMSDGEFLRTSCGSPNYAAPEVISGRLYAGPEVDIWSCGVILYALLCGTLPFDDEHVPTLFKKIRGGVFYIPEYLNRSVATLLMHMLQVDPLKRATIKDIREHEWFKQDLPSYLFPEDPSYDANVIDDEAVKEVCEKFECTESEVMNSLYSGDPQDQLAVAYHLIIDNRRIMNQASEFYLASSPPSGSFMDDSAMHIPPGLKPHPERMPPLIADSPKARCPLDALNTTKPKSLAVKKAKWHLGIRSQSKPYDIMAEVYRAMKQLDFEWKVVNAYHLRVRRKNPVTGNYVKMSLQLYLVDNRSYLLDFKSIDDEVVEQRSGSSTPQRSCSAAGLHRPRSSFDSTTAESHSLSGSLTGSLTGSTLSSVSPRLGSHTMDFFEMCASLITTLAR"}, "various kinases [18]": {"molecular_target": "various kinases (Homo sapiens, UniProt Q09013)", "details": "DMPK"}, "various kinases [19]": {"molecular_target": "various kinases (Homo sapiens, UniProt P10721, D816H)", "details": "KIT D816H"}, "various kinases [20]": {"molecular_target": "various kinases (Homo sapiens, UniProt P22607, K650M)", "sequence (P22607 23-806 K650M)": "as the sequence (P22607 23-806 G697C) above, with K628M, C675G counted along it", "details": "FGFR3 K650M"}, "various kinases [21]": {"molecular_target": "various kinases (Homo sapiens, UniProt Q9Y3S1)", "sequence (Q9Y3S1 whole entry)": "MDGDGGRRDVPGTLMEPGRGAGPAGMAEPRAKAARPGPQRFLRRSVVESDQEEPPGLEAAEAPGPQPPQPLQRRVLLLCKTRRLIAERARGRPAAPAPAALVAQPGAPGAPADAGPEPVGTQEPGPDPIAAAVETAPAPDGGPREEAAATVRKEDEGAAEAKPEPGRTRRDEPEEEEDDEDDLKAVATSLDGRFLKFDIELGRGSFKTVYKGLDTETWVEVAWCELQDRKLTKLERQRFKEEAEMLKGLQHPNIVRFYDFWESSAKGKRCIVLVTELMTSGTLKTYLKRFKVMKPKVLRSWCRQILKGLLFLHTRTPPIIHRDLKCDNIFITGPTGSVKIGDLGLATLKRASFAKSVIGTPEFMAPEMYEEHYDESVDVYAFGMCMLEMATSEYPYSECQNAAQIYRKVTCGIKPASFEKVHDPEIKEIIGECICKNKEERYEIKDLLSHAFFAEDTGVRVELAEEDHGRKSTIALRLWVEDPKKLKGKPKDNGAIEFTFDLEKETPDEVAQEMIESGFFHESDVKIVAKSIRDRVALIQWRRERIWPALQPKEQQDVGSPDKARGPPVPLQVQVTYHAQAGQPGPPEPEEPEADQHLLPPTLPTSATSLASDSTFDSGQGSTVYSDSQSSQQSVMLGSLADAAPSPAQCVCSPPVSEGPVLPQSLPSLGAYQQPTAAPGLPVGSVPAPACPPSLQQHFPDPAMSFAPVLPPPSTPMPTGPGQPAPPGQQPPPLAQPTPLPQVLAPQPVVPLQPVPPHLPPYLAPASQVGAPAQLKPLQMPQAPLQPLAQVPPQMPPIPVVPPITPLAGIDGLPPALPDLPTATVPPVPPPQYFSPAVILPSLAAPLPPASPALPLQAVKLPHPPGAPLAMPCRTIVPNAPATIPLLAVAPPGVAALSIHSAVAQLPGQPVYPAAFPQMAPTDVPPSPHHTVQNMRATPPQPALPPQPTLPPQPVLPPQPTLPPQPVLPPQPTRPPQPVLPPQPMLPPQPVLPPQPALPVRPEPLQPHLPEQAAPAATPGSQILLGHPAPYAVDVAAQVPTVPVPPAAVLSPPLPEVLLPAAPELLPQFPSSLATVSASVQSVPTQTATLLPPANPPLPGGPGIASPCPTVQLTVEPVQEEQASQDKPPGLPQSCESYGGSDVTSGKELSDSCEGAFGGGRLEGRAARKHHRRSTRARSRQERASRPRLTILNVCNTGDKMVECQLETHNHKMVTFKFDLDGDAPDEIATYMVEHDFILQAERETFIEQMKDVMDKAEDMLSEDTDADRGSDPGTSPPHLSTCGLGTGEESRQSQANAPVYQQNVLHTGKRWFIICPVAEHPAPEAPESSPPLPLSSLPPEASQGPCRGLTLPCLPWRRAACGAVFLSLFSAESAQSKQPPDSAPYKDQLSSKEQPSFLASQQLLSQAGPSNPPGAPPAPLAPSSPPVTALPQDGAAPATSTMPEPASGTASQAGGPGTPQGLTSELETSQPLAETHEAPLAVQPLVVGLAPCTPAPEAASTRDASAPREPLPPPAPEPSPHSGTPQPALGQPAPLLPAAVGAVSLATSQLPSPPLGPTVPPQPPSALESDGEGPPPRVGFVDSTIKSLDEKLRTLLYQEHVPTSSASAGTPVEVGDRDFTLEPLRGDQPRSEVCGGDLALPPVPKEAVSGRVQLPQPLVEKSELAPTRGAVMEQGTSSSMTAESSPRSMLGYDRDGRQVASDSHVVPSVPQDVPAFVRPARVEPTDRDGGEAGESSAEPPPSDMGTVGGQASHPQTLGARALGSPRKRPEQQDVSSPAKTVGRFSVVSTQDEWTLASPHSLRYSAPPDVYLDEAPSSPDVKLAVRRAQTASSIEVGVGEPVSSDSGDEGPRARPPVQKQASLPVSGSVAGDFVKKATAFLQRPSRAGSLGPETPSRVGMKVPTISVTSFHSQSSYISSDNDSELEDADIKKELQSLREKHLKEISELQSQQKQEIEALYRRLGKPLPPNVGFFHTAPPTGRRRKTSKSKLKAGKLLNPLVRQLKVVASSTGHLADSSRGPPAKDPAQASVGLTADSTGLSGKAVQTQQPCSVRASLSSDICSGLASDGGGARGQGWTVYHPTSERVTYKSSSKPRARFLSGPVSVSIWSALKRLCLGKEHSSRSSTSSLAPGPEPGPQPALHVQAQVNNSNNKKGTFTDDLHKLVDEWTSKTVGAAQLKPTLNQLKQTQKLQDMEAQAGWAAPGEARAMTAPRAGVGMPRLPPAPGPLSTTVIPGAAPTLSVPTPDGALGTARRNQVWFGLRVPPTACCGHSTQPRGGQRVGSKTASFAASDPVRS", "details": "kinase WNK2; LanthaScreen Binding"}, "various kinases [22]": {"molecular_target": "various kinases (Homo sapiens, UniProt P53667)", "details": "LIMK1"}, "various kinases [23]": {"molecular_target": "various kinases (Homo sapiens, UniProt Q07912)", "sequence (Q07912 whole entry)": "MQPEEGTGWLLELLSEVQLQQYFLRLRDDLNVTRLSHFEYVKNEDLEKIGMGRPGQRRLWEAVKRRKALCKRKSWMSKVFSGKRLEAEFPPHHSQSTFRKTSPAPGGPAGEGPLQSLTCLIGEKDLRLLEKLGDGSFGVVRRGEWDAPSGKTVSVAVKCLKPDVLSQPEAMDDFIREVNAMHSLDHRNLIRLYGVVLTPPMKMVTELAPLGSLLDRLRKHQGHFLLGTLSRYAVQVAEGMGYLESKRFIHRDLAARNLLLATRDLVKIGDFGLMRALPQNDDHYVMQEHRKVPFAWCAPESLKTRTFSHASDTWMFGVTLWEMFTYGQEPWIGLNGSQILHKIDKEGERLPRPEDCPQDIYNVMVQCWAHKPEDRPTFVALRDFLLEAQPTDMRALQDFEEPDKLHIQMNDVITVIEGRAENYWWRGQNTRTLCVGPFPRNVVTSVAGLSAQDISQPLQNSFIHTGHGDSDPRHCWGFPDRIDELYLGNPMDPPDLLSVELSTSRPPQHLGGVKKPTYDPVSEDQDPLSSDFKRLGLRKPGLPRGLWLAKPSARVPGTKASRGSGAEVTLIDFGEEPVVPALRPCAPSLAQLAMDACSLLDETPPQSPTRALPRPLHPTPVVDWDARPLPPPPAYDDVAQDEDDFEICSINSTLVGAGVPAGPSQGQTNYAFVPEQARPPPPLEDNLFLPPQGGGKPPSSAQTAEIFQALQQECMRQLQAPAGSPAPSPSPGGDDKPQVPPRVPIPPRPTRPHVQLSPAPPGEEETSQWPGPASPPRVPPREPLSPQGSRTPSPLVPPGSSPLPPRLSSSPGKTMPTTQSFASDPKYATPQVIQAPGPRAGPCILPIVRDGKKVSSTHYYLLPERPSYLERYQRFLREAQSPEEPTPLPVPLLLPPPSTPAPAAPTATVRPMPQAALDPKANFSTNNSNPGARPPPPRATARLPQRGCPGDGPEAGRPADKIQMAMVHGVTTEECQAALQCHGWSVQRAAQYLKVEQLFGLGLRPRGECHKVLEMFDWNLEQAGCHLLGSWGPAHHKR", "details": "kinase TNK2 (ACK); LanthaScreen Binding"}, "various kinases [24]": {"molecular_target": "various kinases (Homo sapiens, UniProt P50750)", "sequence (P50750 whole entry)": "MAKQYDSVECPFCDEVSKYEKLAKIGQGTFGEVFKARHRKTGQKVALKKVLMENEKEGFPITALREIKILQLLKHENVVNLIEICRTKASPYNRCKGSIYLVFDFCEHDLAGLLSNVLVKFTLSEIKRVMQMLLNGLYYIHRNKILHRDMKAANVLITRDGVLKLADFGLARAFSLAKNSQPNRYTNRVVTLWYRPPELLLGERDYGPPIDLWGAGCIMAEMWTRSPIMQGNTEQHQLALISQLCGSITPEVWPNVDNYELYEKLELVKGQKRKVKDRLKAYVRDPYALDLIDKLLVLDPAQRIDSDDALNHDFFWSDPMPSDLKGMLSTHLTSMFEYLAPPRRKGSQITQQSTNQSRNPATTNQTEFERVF"}}, "note": "Where “and” joins values, the source holds several entries; their conditions need not be identical. Equal entries are not always repeated."}
{"smiles": "COc1ccc2c(c1)[C@]1(C[C@H]1c1ccc3c(/C=C/c4ccc(CN5C[C@@H](C)O[C@@H](C)C5)cc4)n[nH]c3c1)C(=O)N2", "note": "[CFI-400945]", "values": [{"measurement": "% Inhibition", "setting": "various kinases [1]", "result": 8, "unit": "%"}, {"measurement": "% Inhibition", "setting": "various kinases [2]", "result": "11% and 8%"}, {"measurement": "% Inhibition", "setting": "various kinases [3]", "result": 65, "unit": "%"}, {"measurement": "IC50", "setting": "various kinases [3]", "result": 444, "unit": "nM"}, {"measurement": "% Inhibition", "setting": "various kinases [4]", "result": "52% and 50%"}, {"measurement": "% Inhibition", "setting": "various kinases [5]; CDK2/cyclin A1", "result": "12% and 19%"}, {"measurement": "% Inhibition", "setting": "various kinases [5]; CDK2/cyclin E1", "result": 9, "unit": "%"}, {"measurement": "% Inhibition", "setting": "various kinases [5]; CDK2/cyclin O", "result": "13% and 19%"}, {"measurement": "% Inhibition", "setting": "various kinases [6]", "result": "3% and -4%"}, {"measurement": "% Inhibition Average", "setting": "various kinases [7]", "result": 5, "unit": "%"}, {"measurement": "% Inhibition Duplicate #1", "setting": "various kinases [7]", "result": 10, "unit": "%"}, {"measurement": "% Inhibition Duplicate #2", "setting": "various kinases [7]", "result": 1, "unit": "%"}, {"measurement": "% Inhibition Average", "setting": "various kinases [8]", "result": 3, "unit": "%"}, {"measurement": "% Inhibition Duplicate #1", "setting": "various kinases [8]", "result": 4, "unit": "%"}, {"measurement": "% Inhibition Duplicate #2", "setting": "various kinases [8]", "result": 3, "unit": "%"}, {"measurement": "% Inhibition", "setting": "various kinases [9]", "result": "8% and 4%"}, {"measurement": "% Inhibition", "setting": "various kinases [10]", "result": "8% and 5%"}, {"measurement": "% Inhibition", "setting": "various kinases [11]", "result": "30% and 40%"}, {"measurement": "% Inhibition", "setting": "various kinases [12]", "result": "9% and 8%"}, {"measurement": "% Inhibition", "setting": "various kinases [13]", "result": "-4% and 2%"}, {"measurement": "% Inhibition", "setting": "various kinases [14]", "result": "6% and 3%"}, {"measurement": "% Inhibition", "setting": "various kinases [15]", "result": "0% and 1%"}, {"measurement": "% Inhibition Average", "setting": "various kinases [16]", "result": -1, "unit": "%"}, {"measurement": "% Inhibition Duplicate #1", "setting": "various kinases [16]", "result": 1, "unit": "%"}, {"measurement": "% Inhibition Duplicate #2", "setting": "various kinases [16]", "result": -3, "unit": "%"}, {"measurement": "% Inhibition", "setting": "various kinases [17]; AMPK (A2/B2/G1)", "result": "14% and 19%"}, {"measurement": "% Inhibition", "setting": "various kinases [17]; AMPK (A2/B2/G2)", "result": "14% and 12%"}, {"measurement": "% Inhibition", "setting": "various kinases [18]", "result": "1% and -3%"}, {"measurement": "% Inhibition", "setting": "various kinases [19]", "result": "21% and 20%"}, {"measurement": "% Inhibition", "setting": "various kinases [20]", "result": "44% and 48%"}, {"measurement": "% Inhibition Average", "setting": "various kinases [21]", "result": -3, "unit": "%"}, {"measurement": "% Inhibition Duplicate #1", "setting": "various kinases [21]", "result": -6, "unit": "%"}, {"measurement": "% Inhibition Duplicate #2", "setting": "various kinases [21]", "result": 0, "unit": "%"}, {"measurement": "% Inhibition", "setting": "various kinases [22]", "result": "11% and 15%"}, {"measurement": "% Inhibition Average", "setting": "various kinases [23]", "result": 9, "unit": "%"}, {"measurement": "% Inhibition Duplicate #1", "setting": "various kinases [23]", "result": 11, "unit": "%"}, {"measurement": "% Inhibition Duplicate #2", "setting": "various kinases [23]", "result": 8, "unit": "%"}, {"measurement": "% Inhibition", "setting": "various kinases [24]; CDK9 (Inactive)", "result": "13% and 12%"}, {"measurement": "% Inhibition", "setting": "various kinases [24]; CDK9/cyclin K", "result": "-3% and -6%"}]}
